Laboratory results as given in patent publication US10238670B2, “9-aminomethyl minocycline compounds and methods of use thereof in urinary tract infection (UTI) treatment” (Paratek Pharmaceuticals, Inc., priority 2016, dated 2019).

How the values were obtained:
Assay in all cases: In vitro MIC, 2010 surveillance isolates
Acinetobacter spp = format: cell-based
A. baumanii = format: cell-based
MS CoNS = format: cell-based, Coagulase-Negative Staphylococcus
E. coli ESBL− = format: cell-based, Escherichia coli; details: for % R (resistance): Eucast breakpoints
E. faecium VNS = format: cell-based; details: for % R (resistance): Eucast breakpoints
E. faecalis VNS = format: cell-based
E. coli ESBL+ = format: cell-based, Escherichia coli; details: for % R (resistance): Eucast breakpoints
MSSA = format: cell-based
MR CoNS = format: cell-based, Coagulase-Negative Staphylococcus
MRSA = format: cell-based
Enterobacter spp = format: cell-based; details: for % R (resistance): Eucast breakpoints
K. oxytoca = format: cell-based; details: for % R (resistance): Eucast breakpoints
E. cloacae CeftazS = format: cell-based; details: for % R (resistance): Eucast breakpoints
K. pneumoniae ESBL+ = format: cell-based, Klebsiella pneumoniae; details: for % R (resistance): Eucast breakpoints
E. faecalis VS = format: cell-based
E. faecium VS = format: cell-based; details: for % R (resistance): Eucast breakpoints
E. cloacae CeftazR = format: cell-based; details: for % R (resistance): Eucast breakpoints
K. pneumoniae ESBL− = format: cell-based, Klebsiella pneumoniae

amoxicillin-clavulanic acid [Amox/clav]
MIC90 (Acinetobacter spp; Europe, N=43): > 8 µg/mL | MIC90 (Acinetobacter spp; N America, N=42): > 8 µg/mL | MIC90 (A. baumanii; Asia/Pac, N=275): > 8 µg/mL | MIC90 (A. baumanii; Europe, N=145): > 8 µg/mL | MIC90 (A. baumanii; L. Amer, N=275): > 8 µg/mL | MIC90 (A. baumanii; N America, N=154): > 8 µg/mL | % R (resistance) (MS CoNS; Asia/Pac, Eucast breakpoints): 0% | MIC90 (MS CoNS; Asia/Pac, N=18): ≤ 1 µg/mL | % R (resistance) (MS CoNS; Europe, Eucast breakpoints): 0% | MIC90 (MS CoNS; Europe, N=185): ≤ 1 µg/mL | % R (resistance) (MS CoNS; L. Amer, CLSI breakpoints): 0% | MIC90 (MS CoNS; L. Amer, N=67): ≤ 1 µg/mL | % R (resistance) (MS CoNS; N America, CLSI breakpoints): 0% | MIC90 (MS CoNS; N America, N=191): ≤ 1 µg/mL | % R (resistance) (E. coli ESBL−; Asia/Pac): 14.2% | MIC90 (E. coli ESBL−; Asia/Pac, N=282): > 8 µg/mL | % R (resistance) (E. coli ESBL−; Europe): 17.7% | MIC90 (E. coli ESBL−; Europe, N=1533): > 8 µg/mL | MIC90 (E. coli ESBL−; L. Amer, N=389): > 8 µg/mL | MIC90 (E. coli ESBL−; N America, N=1172): > 8 µg/mL | % R (resistance) (E. faecium VNS; Asia/Pac): 100% | MIC90 (E. faecium VNS; Asia/Pac, N=24): > 8 µg/mL | % R (resistance) (E. faecium VNS; Europe): 100% | MIC90 (E. faecium VNS; Europe, N=71): > 8 µg/mL | MIC90 (E. faecium VNS; L. Amer, N=41): > 8 µg/mL | MIC90 (E. faecium VNS; N America, N=478): > 8 µg/mL | range of MICs (N <10, shown instead of MIC90) (E. faecalis VNS; Asia/Pac, N=1): ≤1 | % R (resistance) (E. faecalis VNS; Europe, Eucast breakpoints): 0% | range of MICs (N <10, shown instead of MIC90) (E. faecalis VNS; Europe, N=8): ≤1-2 | % R (resistance) (E. faecalis VNS; L. Amer, CLSI breakpoints): 0% | range of MICs (N <10, shown instead of MIC90) (E. faecalis VNS; L. Amer, N=7): ≤1-2 | % R (resistance) (E. faecalis VNS; N America, CLSI breakpoints): 0% | MIC90 (E. faecalis VNS; N America, N=38): ≤ 1 µg/mL | % R (resistance) (E. coli ESBL+; Asia/Pac): 39.3% | MIC90 (E. coli ESBL+; Asia/Pac, N=219): > 8 µg/mL | % R (resistance) (E. coli ESBL+; Europe): 70.1% | MIC90 (E. coli ESBL+; Europe, N=274): > 8 µg/mL | MIC90 (E. coli ESBL+; L. Amer, N=168): > 8 µg/mL | MIC90 (E. coli ESBL+; N America, N=134): > 8 µg/mL | % R (resistance) (MSSA; Asia/Pac, Eucast breakpoints): 0% | MIC90 (MSSA; Asia/Pac, N=641): ≤ 1 µg/mL | % R (resistance) (MSSA; Europe, Eucast breakpoints): 0% | MIC90 (MSSA; Europe, N=2109): ≤ 1 µg/mL | % R (resistance) (MSSA; L. Amer, CLSI breakpoints): 0% | MIC90 (MSSA; L. Amer, N=590): ≤ | % R (resistance) (MSSA; N America, CLSI breakpoints): 0.1% | MIC90 (MSSA; N America, N=2373): ≤ 1 µg/mL | % R (resistance) (MR CoNS; Asia/Pac, Eucast breakpoints): 100% | MIC90 (MR CoNS; Asia/Pac, N=77): > 8 µg/mL | % R (resistance) (MR CoNS; Europe, Eucast breakpoints): 100% | MIC90 (MR CoNS; Europe, N=510): > 8 µg/mL | % R (resistance) (MR CoNS; L. Amer, CLSI breakpoints): 100% | MIC90 (MR CoNS; L. Amer, N=301): > 8 µg/mL | % R (resistance) (MR CoNS; N America, CLSI breakpoints): 100% | MIC90 (MR CoNS; N America, N=461): 8 µg/mL | % R (resistance) (MRSA; Asia/Pac, Eucast breakpoints): 100% | MIC90 (MRSA; Asia/Pac, N=428): > 8 µg/mL | % R (resistance) (MRSA; Europe, Eucast breakpoints): 100% | MIC90 (MRSA; Europe, N=750): > 8 µg/mL | % R (resistance) (MRSA; L. Amer, CLSI breakpoints): 100% | MIC90 (MRSA; L. Amer, N=506): > 8 µg/mL | % R (resistance) (MRSA; N America, CLSI breakpoints): 100% | MIC90 (MRSA; N America, N=2508): > 8 µg/mL | % R (resistance) (Enterobacter spp; Asia/Pac): 96.2% | MIC90 (Enterobacter spp; Asia/Pac, N=52): > 8 µg/mL | % R (resistance) (Enterobacter spp; Europe): 91.5% | MIC90 (Enterobacter spp; Europe, N=82): > 8 µg/mL | MIC90 (Enterobacter spp; L. Amer, N=42): > 8 µg/mL | MIC90 (Enterobacter spp; N America, N=101): > 8 µg/mL | % R (resistance) (K. oxytoca; Asia/Pac): 23.5% | MIC90 (K. oxytoca; Asia/Pac, N=17): > 8 µg/mL | % R (resistance) (K. oxytoca; Europe): 14.6% | MIC90 (K. oxytoca; Europe, N=158): > 8 µg/mL | MIC90 (K. oxytoca; L. Amer, N=25): > 8 µg/mL | MIC90 (K. oxytoca; N America, N=177): > 8 µg/mL | % R (resistance) (E. cloacae CeftazS; Asia/Pac): 94% | MIC90 (E. cloacae CeftazS; Asia/Pac, N=100): > 8 µg/mL | % R (resistance) (E. cloacae CeftazS; Europe): 92.3% | MIC90 (E. cloacae CeftazS; Europe, N=183): > 8 µg/mL | MIC90 (E. cloacae CeftazS; L. Amer, N=57): > 8 µg/mL | MIC90 (E. cloacae CeftazS; N America, N=210): > 8 µg/mL | % R (resistance) (K. pneumoniae ESBL+; Asia/Pac): 72.6% | MIC90 (K. pneumoniae ESBL+; Asia/Pac, N=124): > 8 µg/mL | % R (resistance) (K. pneumoniae ESBL+; Europe): 84.1% | MIC90 (K. pneumoniae ESBL+; Europe, N=151): > 8 µg/mL | MIC90 (K. pneumoniae ESBL+; L. Amer, N=209): > 8 µg/mL | MIC90 (K. pneumoniae ESBL+; N America, N=108): > 8 µg/mL | % R (resistance) (E. faecalis VS; Asia/Pac, Eucast breakpoints): 0% | MIC90 (E. faecalis VS; Asia/Pac, N=214): ≤ 1 µg/mL | % R (resistance) (E. faecalis VS; Europe, Eucast breakpoints): 0% | MIC90 (E. faecalis VS; Europe, N=669): ≤ 1 µg/mL | % R (resistance) (E. faecalis VS; L. Amer, CLSI breakpoints): 0% | MIC90 (E. faecalis VS; L. Amer, N=290): ≤ 1 µg/mL | % R (resistance) (E. faecalis VS; N America, CLSI breakpoints): 0% | MIC90 (E. faecalis VS; N America, N=863): ≤ 1 µg/mL | % R (resistance) (E. faecium VS; Asia/Pac): 91.5% | MIC90 (E. faecium VS; Asia/Pac, N=106): > 8 µg/mL | % R (resistance) (E. faecium VS; Europe): 93.4% | MIC90 (E. faecium VS; Europe, N=303): > 8 µg/mL | MIC90 (E. faecium VS; L. Amer, N=51): > 8 µg/mL | MIC90 (E. faecium VS; N America, N=115): > 8 µg/mL | % R (resistance) (E. cloacae CeftazR; Asia/Pac): 100% | MIC90 (E. cloacae CeftazR; Asia/Pac, N=63): > 8 µg/mL | % R (resistance) (E. cloacae CeftazR; Europe): 100% | MIC90 (E. cloacae CeftazR; Europe, N=72): > 8 µg/mL | MIC90 (E. cloacae CeftazR; L. Amer, N=42): > 8 µg/mL | MIC90 (E. cloacae CeftazR; N America, N=77): > 8 µg/mL | % R (resistance) (K. pneumoniae ESBL−; Asia/Pac, Eucast breakpoints): 3.7% | MIC90 (K. pneumoniae ESBL−; Asia/Pac, N=189): 8 µg/mL | % R (resistance) (K. pneumoniae ESBL−; Europe, Eucast breakpoints): 7.2% | MIC90 (K. pneumoniae ESBL−; Europe, N=361): 8 µg/mL | MIC90 (K. pneumoniae ESBL−; L. Amer, N=160): 8 µg/mL | % R (resistance) (K. pneumoniae ESBL−; N America, CLSI breakpoints): 0% | MIC90 (K. pneumoniae ESBL−; N America, N=671): 4 µg/mL
